Measured values published in patent US20220330549A1, “USE OF N-BENZYLBENZAMIDE-BASED COMPOUND AS HERBICIDE” (Northwest A&F University, priority 2020, published 2022).

Experiments:
Assay type in all cases: in vivo
Barnyard grass [1] = test: Herbicidal activity test for indoor pre-emergence soil treatment; set-up: key: level 1-9; higher = more weed remaining vs blank control; conditions: 150 g a.i./ha, visual inspection 21 days after treatment
How it was run: (§1)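 Compounds were formulated as 10% emulsifiable concentrates and sprayed onto the soil 24 h after sowing, at 150 g(a.i.)/ha. Soil was sandy loam (≤2% organic matter), with seeds under 0.5–2.0 cm cover, per NY/T 1155.3-2006. Visual 1–9 ratings relative to blank control were made after 21 days.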

Piemarker [2] = test: as above; set-up: key: level 1-9; higher = more weed remaining vs blank control; conditions: 150 g a.i./ha, visual inspection 21 days after treatment
How it was run: as §1

green bristlegrass [3] = test: as above; set-up: key: level 1-9; higher = more weed remaining vs blank control; conditions: 150 g a.i./ha, visual inspection 21 days after treatment
How it was run: as §1

Amaranthus retroflexus [4] = test: as above; set-up: key: 1-9 levels; higher = more weed remaining vs blank control; conditions: 150 g a.i./ha, visual inspection 21 days after treatment
How it was run: as §1

Digitaria sanguinalis [5] = test: as above; set-up: key: 1-9 levels; higher = more weed remaining vs blank control; conditions: 150 g a.i./ha, visual inspection 21 days after treatment
How it was run: as §1

Humulus scandens [6] = test: as above; conditions: 150 g a.i./ha, visual inspection 21 days after treatment
How it was run: as §1

Amaranthus retroflexus [7] = test: Herbicidal activity test for indoor post-emergence spraying on stems and leaves; set-up: key: grade level by weed remaining vs blank control, e.g. 5 = 10.1-15%; conditions: 150 g a.i./ha, visual inspection 21 days after treatment
How it was run: (§2)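 Visual inspection at 21 days after treatment gave a level rating, each level defined as a percentage band of the weed remaining in the blank control area. Plants were sprayed on stems and leaves after emergence, following NY/T 1155.4-2006.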

Barnyard grass [8] = test: as above; set-up: key: grade level by weed remaining vs blank control, e.g. 5 = 10.1-15%; conditions: 150 g a.i./ha, visual inspection 21 days after treatment
How it was run: as §2

Digitaria sanguinalis [9] = test: as above; set-up: key: grade level by weed remaining vs blank control, e.g. 5 = 10.1-15%; conditions: 150 g a.i./ha, visual inspection 21 days after treatment
How it was run: as §2

Humulus scandens [10] = test: as above; set-up: key: grade level by weed remaining vs blank control, e.g. 5 = 10.1-15%; conditions: 150 g a.i./ha, visual inspection 21 days after treatment
How it was run: as §2

Piemarker [11] = test: as above; set-up: key: grade level by weed remaining vs blank control, e.g. 5 = 10.1-15%; conditions: 150 g a.i./ha, visual inspection 21 days after treatment
How it was run: as §2

green bristlegrass [12] = test: as above; set-up: key: grade level by weed remaining vs blank control, e.g. 5 = 10.1-15%; conditions: 150 g a.i./ha, visual inspection 21 days after treatment
How it was run: as §2

Broadleaf weed = test: Post-emergence herbicidal activity test in a paddy field; set-up: key: level scale; higher level = more weed left vs blank control; conditions: 150 g a.i./ha (penoxsulam control 250 g(a.i.)/h)
How it was run: (§3)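 Efficacy was visually estimated 15 and 30 days after spraying, grading weed coverage relative to an untreated neighbouring plot (level 2 = 0 to 2.5%, level 9 = 67.6 to 100%). Treatments were 150 g(a.i.)/ha from 10% emulsifiable concentrates applied at the 4-5 leaf rice stage, four repeats of 50 m^2 each.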

Cyperaceae = test: as above; set-up: key: level scale; higher level = more weed left vs blank control; conditions: 150 g a.i./ha (penoxsulam control 250 g(a.i.)/h)
How it was run: as §3

Gramineae = test: as above; set-up: key: level scale; higher level = more weed left vs blank control; conditions: 150 g a.i./ha (penoxsulam control 250 g(a.i.)/h)
How it was run: as §3

Acalypha australis = test: Field test for weed control in a corn field; conditions: 150 g a.i./ha, after treatment
How it was run: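 Post-emergence field trial in a corn field following GB/T 17980.42-2000. Test compounds were formulated as 10% emulsifiable concentrates, diluted in water, and sprayed at 150 g(a.i.)/ha when corn had 2 to 5 leaves, with 4 replicates on 20 m^2 plots. Mesotrione 25% oil dispersion served as the control agent. Weed control was scored on a 1-9 scale.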

Amaranthus retroflexus [13] = test: Field test for weed control in a corn field; conditions: 150 g a.i./ha, 30 days after treatment
How it was run: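 Field efficacy trial in a corn field following GB/T 17980.42-2000. Test compounds were formulated as 10% emulsifiable concentrates, diluted in water and sprayed post-emergence when corn had 2 to 5 leaves. Each treatment covered 20 m^2 with 4 replicates. A 25% mesotrione oil dispersion served as control. Damage to Amaranthus retroflexus was rated on a 1-9 scale against untreated blank plots.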

Barnyard grass [14] = test: Field test for weed control in a corn field; conditions: 150 g a.i./ha, 30 days after treatment
How it was run: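 Corn-field efficacy trial following GB/T 17980.42-2000. Test compounds were formulated as 10% emulsifiable concentrates, diluted in water and sprayed post-emergence at 150 g(a.i.)/ha when corn had 2 to 5 leaves. Each treatment was replicated 4 times on 20 m^2 plots. Barnyard grass control was rated on a 1-9 damage scale.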

Chenopodium album = test: Field test for weed control in a corn field; conditions: 150 g a.i./ha, after treatment
How it was run: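 A corn-field efficacy trial following GB/T 17980.42-2000 tested post-emergence control of Chenopodium album. Test compounds formulated as 10% emulsifiable concentrates were diluted in water and sprayed at 150 g(a.i.)/ha when the corn had 2 leaves to 5 leaves, on 20 m^2 plots with 4 replicates. Herbicidal activity was rated on a 1-9 scale by damage symptoms and severity.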

Convolvulus arvensis = test: Field test for weed control in a corn field; conditions: 150 g a.i./ha, after treatment
How it was run: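 Field trial of weed control against Convolvulus arvensis in corn, run following GB/T 17980.42-2000. Test agents were formulated as 10% emulsifiable concentrates and sprayed in water at 150 g(a.i.)/ha when corn plants had 2 to 5 leaves. Each treatment was replicated 4 times on 20 m^2 plots, and 25% mesotrione oil dispersion served as the control agent.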

Digitaria sanguinalis [15] = test: Field test for weed control in a corn field; conditions: 150 g a.i./ha, after treatment
How it was run: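 Field trial in a corn field following GB/T 17980.42-2000. Test compounds were formulated as 10% emulsifiable concentrates, diluted in water and sprayed post-emergence at 150 g(a.i.)/ha when corn had 2 to 5 leaves, with 4 replicates on 20 m^2 plots. Control of Digitaria sanguinalis was scored on a 1-9 scale based on weed damage relative to the untreated blank area.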

Portulaca oleracea = test: Field test for weed control in a corn field; conditions: 150 g a.i./ha, after treatment
How it was run: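 Field efficacy trial in corn following GB/T 17980.42-2000. Test compounds were prepared as 10% emulsifiable concentrates, diluted in water, and sprayed at 150 g(a.i.)/ha when corn had 2 to 5 leaves after sowing. Plots were 20 m^2 with 4 replicates per treatment. Herbicidal activity was scored on a 1-9 scale from weed damage symptoms and severity.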

Solanum nigrum = test: Field test for weed control in a corn field; conditions: 150 g a.i./ha, 30 days after treatment
How it was run: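 Post-emergence weed control was tested in a corn field following GB/T 17980.42-2000. Compounds were made into 10% emulsifiable concentrates, diluted in water and sprayed at 150 g(a.i.)/ha when corn had 2 to 5 leaves after sowing, in 20 m^2 plots with 4 replicates. Effects on Solanum nigrum were graded on a 1-9 scale relative to the blank control area.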

goosegrass = test: Field test for weed control in a corn field; conditions: 150 g a.i./ha, after treatment
How it was run: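 Weed control efficacy against goosegrass was tested in a corn field following GB/T 17980.42-2000. Compounds formulated as 10% emulsifiable concentrates were diluted in water and sprayed post-emergence at 150 g(a.i.)/ha when corn had 2 to 5 leaves, with 4 replicates of 20 m^2 plots. Herbicidal activity was rated on a 1-9 scale by damage symptoms and severity.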

green bristlegrass [16] = test: Field test for weed control in a corn field; conditions: 150 g a.i./ha, after treatment
How it was run: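 Post-emergence weed control was tested in a corn field following GB/T 17980.42-2000. When the corn had 2 leaves to 5 leaves after sowing, 10% emulsifiable concentrates diluted in water were sprayed at 150 g(a.i.)/ha on 20 m^2 plots, four replicates per treatment. Effects on green bristlegrass were scored on a 1-9 damage scale relative to the blank control area.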

nutgrass flatsedge = test: Field test for weed control in a corn field; conditions: 150 g a.i./ha, after treatment
How it was run: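 A corn field efficacy trial following GB/T 17980.42-2000 assessed post-emergence control of nutgrass flatsedge. Test compounds were formulated as 10% emulsifiable concentrates, diluted in water, and sprayed at 150 g(a.i.)/ha when the corn had 2 to 5 leaves. Each treatment had 4 replicates on 20 m^2 plots. Herbicidal activity was graded on a 1-9 scale by damage symptoms and severity.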

SMILES | Herbicidal Activity Barnyard grass (Barnyard grass [1]) | Herbicidal Activity Piemarker (Piemarker [2]) | Herbicidal Activity Green bristlegrass (green bristlegrass [3]) | Herbicidal Activity Amaranthus retroflexus (Amaranthus retroflexus [4]) | Herbicidal Activity Digitaria sanguinalis (Digitaria sanguinalis [5]) | Herbicidal Activity Humulus scandens (Humulus scandens [6]) | Herbicidal Activity Amaranthus retroflexus (Amaranthus retroflexus [7]) | Herbicidal Activity Barnyard grass (Barnyard grass [8]) | Herbicidal Activity Digitaria sanguinalis (Digitaria sanguinalis [9]) | Herbicidal Activity Humulus scandens (Humulus scandens [10]) | Herbicidal Activity Piemarker (Piemarker [11]) | Herbicidal Activity Green bristlegrass (green bristlegrass [12]) | Herbicidal activity 15 days after treatment Broadleaf weed (Broadleaf weed) | Herbicidal activity 30 days after treatment Broadleaf weed (Broadleaf weed) | Herbicidal activity 15 days after treatment Cyperaceae (Cyperaceae) | Herbicidal activity 30 days after treatment Cyperaceae (Cyperaceae) | Herbicidal activity 15 days after treatment Gramineae (Gramineae) | Herbicidal activity 30 days after treatment Gramineae (Gramineae) | Post-emergence weed control effect, Acalypha australis (Acalypha australis) | Post-emergence weed control effect, Amaranthus retroflexus (Amaranthus retroflexus [13]) | also measured
Cc1cccc(C(=O)NCc2ccc(F)cc2)c1 [Compound B02] | 1 | 2 (equivalent to 0 to 2.5% of the weed in the blank control area) | 1 | 1 | 2 (equivalent to 0 to 2.5% of the weed in the blank control area) | 2 (equivalent to 0 to 2.5% of the weed in the blank control area) | 1 | 1 | 1 | 1 | 1 | 1 | 1 | 1 | 1 | 1 | 2 (equivalent to 0 to 2.5% of the weed in the blank control area) | 2 (equivalent to 0 to 2.5% of the weed in the blank control area) | 2 (equivalent to 0 to 2.5% of the weed in the blank control area) | 1 | Post-emergence weed control effect, Barnyard grass (Barnyard grass [14]): 1; Post-emergence weed control effect, Chenopodium album (Chenopodium album): 1; Post-emergence weed control effect, Convolvulus arvensis (Convolvulus arvensis): 1; Post-emergence weed control effect, Digitaria sanguinalis (Digitaria sanguinalis [15]): 2 (equivalent to 0 to 2.5% of the weed in the blank control area); Post-emergence weed control effect, Portulaca oleracea (Portulaca oleracea): 1; Post-emergence weed control effect, Solanum nigrum (Solanum nigrum): 2 (equivalent to 0 to 2.5% of the weed in the blank control area); Post-emergence weed control effect, Goose grass (goosegrass): 2 (equivalent to 0 to 2.5% of the weed in the blank control area); Post-emergence weed control effect, Green bristlegrass (green bristlegrass [16]): 1; Post-emergence weed control effect, Nutgrass flatsedge (nutgrass flatsedge): 2 (equivalent to 0 to 2.5% of the weed in the blank control area)
Cc1cccc(C(=O)NCc2cc(F)cc(Cl)c2)c1 [Compound B07] | 1 | 1 | 1 | 2 (equivalent to 0 to 2.5% of the weed in the blank control area) | 1 | 3 (equivalent to 2.6 to 5% of the weed in the blank control area) | 1 | 1 | 1 | 1 | 1 | 1 | 1 | 1 | 1 | 1 | 2 (equivalent to 0 to 2.5% of the weed in the blank control area) | 2 (equivalent to 0 to 2.5% of the weed in the blank control area) | 2 (equivalent to 0 to 2.5% of the weed in the blank control area) | 1 | Post-emergence weed control effect, Barnyard grass (Barnyard grass [14]): 1; Post-emergence weed control effect, Chenopodium album (Chenopodium album): 1; Post-emergence weed control effect, Convolvulus arvensis (Convolvulus arvensis): 1; Post-emergence weed control effect, Digitaria sanguinalis (Digitaria sanguinalis [15]): 2 (equivalent to 0 to 2.5% of the weed in the blank control area); Post-emergence weed control effect, Portulaca oleracea (Portulaca oleracea): 1; Post-emergence weed control effect, Solanum nigrum (Solanum nigrum): 2 (equivalent to 0 to 2.5% of the weed in the blank control area); Post-emergence weed control effect, Goose grass (goosegrass): 2 (equivalent to 0 to 2.5% of the weed in the blank control area); Post-emergence weed control effect, Green bristlegrass (green bristlegrass [16]): 2 (equivalent to 0 to 2.5% of the weed in the blank control area); Post-emergence weed control effect, Nutgrass flatsedge (nutgrass flatsedge): 2 (equivalent to 0 to 2.5% of the weed in the blank control area)
